Assay results: patent US9340577B2, “HLA binding motifs and peptides and their uses” (priority 1992, dated 2016)
No end group written: not given here.

What was measured:
Test in all cases: biochemical
[1] = molecular target: DR1 (DRB1*0101) (Homo sapiens, UniProt P01903+P01911, A100R/D57E/F55L/F60I/F76Y/I96L/L162R/M171V/P40L/Q125E/R42F/V115G/Y59C); assay type: binding
[2] = molecular target: DRB1*0301 (Homo sapiens, UniProt P01903+P01911, A100K/A102G/A103R/A169T/F55Y/I96L/K41T/L162R/M171V/P40S/Q125H/Q178H/Q39Y/R42S/S66N/T106N/T262R/W38E/Y61H); assay type: binding
Chain of DRB1*0301 (P01903 26-254 limits assumed, other chains not shown): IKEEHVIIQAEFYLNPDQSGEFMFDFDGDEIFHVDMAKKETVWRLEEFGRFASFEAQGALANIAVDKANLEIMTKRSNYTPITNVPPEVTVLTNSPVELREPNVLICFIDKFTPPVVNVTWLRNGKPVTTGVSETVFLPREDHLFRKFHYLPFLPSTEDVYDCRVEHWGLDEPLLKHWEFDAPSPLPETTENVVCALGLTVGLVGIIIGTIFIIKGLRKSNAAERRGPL

[3] = molecular target: DRB1*1201 (Homo sapiens, UniProt P01903+P01911, A100R/A169T/D57E/D86V/F55L/H45Y/K41T/L162R/M171V/P40S/Q125H/Q178H/Q39Y/Q99D/R42G/S66L/T262R/V114A/V67L/W38E/Y59H/Y61H/Y89S); assay type: binding
[4] = molecular target: DRB1*1101 (Homo sapiens, UniProt P01903+P01911, A100R/A169T/A87E/I96F/K41T/L162R/M171V/P40S/Q125H/Q178H/Q39Y/Q99D/R42S/S66Y/T262R/V115G/W38E); conditions: Binding affinity DRB1 *1101
Chain of DRB1*1101 (P01903 26-254 limits assumed, other chains not shown): as above

[5] = molecular target: DRB4*0101 (Homo sapiens, UniProt P01903+P13762, G164S); assay type: binding
[6] = molecular target: DR7 (DRB1*0701) (Homo sapiens, UniProt P01903+P01911, A100R/A102G/A103Q/D57E/D86V/E43K/F76Y/K127E/L162R/M171V/P40G/Q125H/Q99D/R33Q/R42Y/R54Q/S133A/S66F/T210M/V115G/Y107V/Y59L/Y89S); assay type: binding
[7] = molecular target: DRB1*0802 (Homo sapiens, UniProt P01903+P01911, A100R/A103L/A169T/F76Y/H45Y/I96F/K41T/L162R/M171V/P40S/Q125H/Q178H/Q39Y/Q99D/R218S/R42G/S66Y/V115G/W38E); assay type: binding
[8] = molecular target: DRB1*0901 (Homo sapiens, UniProt P01903+P01911, A100R/A103E/D57H/D86V/F55Y/F60I/F76Y/I96F/K127E/L162R/M171V/P40D/Q125H/Q99R/R33Q/R42F/S133A/S66N/T210M/V115G/W38K/Y107V/Y59G/Y89S); assay type: binding
[9] = molecular target: DRB1*1302 (Homo sapiens, UniProt P01903+P01911, A100E/A169T/K41T/L162R/M171V/P40S/Q125H/Q178H/Q39Y/Q99D/R42S/S66N/T262R/V115G/W38E/Y61H); assay type: binding
Chain of DRB1*1302 (P01903 26-254 limits assumed, other chains not shown): as above

[10] = molecular target: DRB1*0405 (Homo sapiens, UniProt P01903+P01911, A100R/A169T/D86S/F76Y/I96L/K127E/L162R/M171V/N62H/P40V/Q125Y/R42H/S133A/S149N/S66Y/V115G/V209L/W38E); assay type: binding
[11] = molecular target: DR4w4 (DRB1*0401) (Homo sapiens, UniProt P01903+P01911, A100K/A169T/F76Y/I96L/K127E/L162R/M171V/N62H/P40V/Q125Y/R42H/S133A/S149N/S66Y/V115G/V209L/W38E); assay type: binding
[12] = molecular target: DRB1*1501 (Homo sapiens, UniProt P01903+P01911); assay type: binding
[13] = molecular target: DRB5*0101 (Homo sapiens, UniProt P01903+Q30154); conditions: Binding affinity DRB5 *0101

| Molecule | IC50 [1] [µM] | IC50 [2] [µM] | IC50 [3] [µM] | IC50 [4] [µM] | IC50 [5] [µM] | IC50 [6] [µM] | IC50 [7] [µM] | IC50 [8] [µM] | IC50 [9] [µM] | IC50 [10] [µM] | IC50 [11] [µM] | IC50 [12] [µM] | IC50 [13] [µM] |
| --- | --- | --- | --- | --- | --- | --- | --- | --- | --- | --- | --- | --- | --- |
| ETCMLIEPPKLRSSV [Peptide 89.0084] | 0.035 | 0.359 | 0.708 | 0.123 | 0.048 | 0.756 | 1.35 | 5.12 | 0.481 | 0.906 |  |  |  |
| LKAICIEKQSRAAKR [Peptide 90.0032] | 0.259 | 0.021 | 11.8 | 0.545 | 0.029 |  | 0.273 | 13.4 |  | > 20 | 0.307 | 2.06 |  |
| GERLEVDTELSPRLQ [Peptide 90.0048] | > 20 | 0.015 | > 20 | > 20 | > 20 | > 20 | > 20 | > 20 | > 20 | > 20 |  | > 20 | > 20 |
| ISEVYGDTPEWIQRQ [Peptide 90.0035] | > 20 | 0.05 | > 20 | > 20 |  | 6.87 | > 20 | > 20 | 0.0069 | 12.8 | > 20 | > 20 | > 20 |
| CC[C@H](C)[C@H](NC(=O)[C@H](Cc1c[nH]cn1)NC(=O)[C@H](C)NC(=O)[C@H](Cc1ccc(O)cc1)NC(=O)[C@H](CC(C)C)NC(=O)[C@@H](NC(=O)[C@H](C)NC(=O)[C@@H]1CCCN1C(=O)[C@H](CCCCN)NC(=O)[C@@H](NC(=O)[C@H](CC(C)C)NC(=O)[C@@H](NC(=O)[C@H](CCCCN)NC(=O)[C@@H](N)Cc1ccccc1)[C@@H](C)O)[C@@H](C)CC)[C@@H](C)O)C(=O)N[C@@H](CCC(N)=O)C(=O)O [Peptide 89.0082] | 0.023 | 0.825 | 0.084 | 0.0055 | 0.02 |  |  | 0.57 | 0.045 | 0.014 | 0.123 |  | 2.43 |
| QMFLGTVKIPPTVQI [Peptide 89.0188] |  | 0.16 | 0.553 | 0.474 | 0.013 | 4.65 | 0.503 | > 20 |  | 0.616 |  | 0.208 | 4.49 |
| LNTVKIPNTVSVSTG [Peptide 89.0178] | 0.051 | 0.065 | 0.361 | 0.976 | 2.58 | 5.48 | 3.69 | 1.14 |  | 3.02 | 0.824 | 12.7 |  |
| LLEFIDDSMENSIQA [Peptide 90.0077] | 0.5 | 0.518 | > 20 | 7.62 | 0.734 | > 20 | > 20 | 6.68 | > 20 | 0.534 |  | 6.12 | > 20 |
| KIGMLDDATVPCWNY [Peptide 90.0040] | 4.43 | 0.16 | 12.7 | > 20 |  | > 20 | > 20 | > 20 | > 20 | > 20 | 0.49 | > 20 | > 20 |
| WQLIRLENAILFTAR [Peptide 90.0211] | 0.0041 | 0.041 | 0.099 |  | 0.02 | 0.089 | 1.84 | 2.27 | 0.0027 | 0.308 |  | 0.044 | 0.445 |
| MLAVFKDTYGLSFTD [Peptide 90.0050] |  | 0.045 | 7.43 | 2.29 | > 20 |  | 7.94 | 1.57 | 1.24 | > 20 | 0.829 |  | 18.3 |
